Here are results for 23 molecules from patent US10227323B2, “Glucosylceramide synthase inhibitors for the treatment of diseases” (BIOMARIN PHARMACEUTICAL INC., priority 2013, dated 2019).

Where only a bound is given, the exact number is not on record here.

As usually defined, the IC50 is the concentration that gives 50% inhibition.

One assay deals with T1, GCS (Canis lupus familiaris, UniProt A0A8I3MXG6).
T1 sequence (A0A8I3MXG6 1-394): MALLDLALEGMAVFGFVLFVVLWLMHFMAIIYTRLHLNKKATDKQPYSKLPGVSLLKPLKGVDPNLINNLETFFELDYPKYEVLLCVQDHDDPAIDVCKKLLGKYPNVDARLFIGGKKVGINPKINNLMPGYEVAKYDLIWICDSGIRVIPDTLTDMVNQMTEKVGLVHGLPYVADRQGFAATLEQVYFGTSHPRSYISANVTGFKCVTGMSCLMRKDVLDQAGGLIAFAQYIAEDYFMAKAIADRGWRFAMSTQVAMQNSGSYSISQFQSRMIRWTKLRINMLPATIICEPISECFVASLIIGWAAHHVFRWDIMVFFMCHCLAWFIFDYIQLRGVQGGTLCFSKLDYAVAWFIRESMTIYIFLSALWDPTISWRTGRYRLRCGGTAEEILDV
The experiment in a line: Assay 1: GCS Enzymatic Assay (MDCK cell lysate, C6-NBD-Ceramide, LC/MS). The class given is biochemical, canine. The conditions noted are these: Table 1; MDCK cell lysate; read-out: IC50 (nM) generated from Assay 1. The gist of the method:
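LC/MS/MS measurement of glucosylceramide and NBD-ceramide after a 1 h, 37 °C reaction with 100 μM UDP-glucose and 10 μM C6-NBD-ceramide gave IC50s or percent inhibition.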
For `CC1CN(C[C@@H](NC(=O)C(F)(F)c2cc3cc(Cl)ccc3o2)[C@H](O)c2ccc3c(c2)OCCO3)C1` [Compound 66, 2-(5-chlorobenzofuran-2-yl)-N-((1R,2R)-1-(2,3-dihydrobenzo[b][1,4]dioxin-6-yl)-1-hydroxy-3-(3-methylazetidin-1-yl)propan-2-yl)-2,2-difluoroacetamide], the IC50 was under 50 nM.

With `O=C(N[C@H](CN1CCCC1)[C@H](O)c1ccc(OC2CC2)c(Cl)c1)C(F)(F)C1Cc2ccc(Cl)cc2C1` (stereo partly drawn) [Compound 67, 2-(5-chloro-2,3-dihydro-1H-inden-2-yl)-N-((1R,2R)-1-(3-chloro-4-cyclopropoxyphenyl)-1-hydroxy-3-(pyrrolidin-1-yl)propan-2-yl)-2,2-difluoroacetamide], the IC50 is under 50 nM.

Take `O=C(N[C@H](CN1CCCC1)[C@H](O)c1ccc(OC2CC2)c(Cl)c1)C(F)(F)c1cc2cc(C(F)(F)F)ccc2o1` [Compound 69, N-((1R,2R)-1-(3-chloro-4-cyclopropoxyphenyl)-1-hydroxy-3-(pyrrolidin-1-yl)propan-2-yl)-2,2-difluoro-2-(5-(trifluoromethyl)benzofuran-2-yl)acetamide]: the IC50 is under 50 nM.

For the molecule `O=C(N[C@H](CN1CCCC1)[C@@H](O)c1ccc(OC2CC2)c(Cl)c1)C(F)(F)c1cc2cc(C(F)(F)F)ccc2o1` [Compound 69A, N-((1S,2R)-1-(3-chloro-4-cyclopropoxyphenyl)-1-hydroxy-3-(pyrrolidin-1-yl)propan-2-yl)-2,2-difluoro-2-(5-(trifluoromethyl)benzofuran-2-yl)acetamide], the IC50 was 50 to 5000 nM.

In the case of `O=C(N[C@H](CN1CCCC1)[C@H](O)c1ccc2c(c1)OCCO2)C(=O)C1Cc2ccccc2C1` [Compound 70, 2-(2,3-dihydro-1H-inden-2-yl)-N-((1R,2R)-1-(2,3-dihydrobenzo[b][1,4]dioxin-6-yl)-1-hydroxy-3-(pyrrolidin-1-yl)propan-2-yl)-2-oxoacetamide], the IC50 was under 50 nM.

Regarding `O=C(N[C@H](CN1CCCC1)[C@H](O)c1ccc2c(c1)OCCO2)C(=O)c1cc2cc(Cl)ccc2o1` [Compound 71, 2-(5-chlorobenzofuran-2-yl)-N-((1R,2R)-1-(2,3-dihydrobenzo[b][1,4]dioxin-6-yl)-1-hydroxy-3-(pyrrolidin-1-yl)propan-2-yl)-2-oxoacetamide], the IC50 was under 50 nM.

Take `O=C(N[C@H](CN1CCCC1)[C@H](O)c1ccc2c(c1)OCCO2)/C(=N/O)c1cc2cc(Cl)ccc2o1` [Compound 72, (E)-2-(5-chlorobenzofuran-2-yl)-N-((1R,2R)-1-(2,3-dihydrobenzo[b][1,4]dioxin-6-yl)-1-hydroxy-3-(pyrrolidin-1-yl)propan-2-yl)-2-(hydroxyimino)acetamide]: the IC50 was under 50 nM.

On to `O=C(N[C@H](CN1CCCC1)[C@H](O)c1ccc2c(c1)OCCO2)C(=O)C1Cc2ccc(-c3ccccn3)cc2C1` (stereo partly drawn) [Compound 73, N-((1R,2R)-1-(2,3-dihydrobenzo[b][1,4]dioxin-6-yl)-1-hydroxy-3-(pyrrolidin-1-yl)propan-2-yl)-2-oxo-2-(5-(pyridin-2-yl)-2,3-dihydro-1H-inden-2-yl)acetamide], for which the 50% inhibitory concentration (IC50) was under 50 nM.

`O=C(N[C@H](CN1CCCC1)[C@H](O)c1ccc2c(c1)OCCO2)C(=O)C1Cc2ccc(Cl)cc2C1` (stereo partly drawn) [Compound 74, 2-(5-chloro-2,3-dihydro-1H-inden-2-yl)-N-((1R,2R)-1-(2,3-dihydrobenzo[b][1,4]dioxin-6-yl)-1-hydroxy-3-(pyrrolidin-1-yl)propan-2-yl)-2-oxoacetamide]: the concentration for half-maximal inhibition (IC50) is under 50 nM.

The same assay, now with this note: Table 1; values marked *; MDCK cell lysate.
In the case of `O=C(N[C@H](CN1CCCC1)[C@H](O)c1cc2cc(Cl)ccc2o1)C(F)(F)c1cc2cc(Cl)ccc2o1` [Compound 68, 2-(5-chlorobenzofuran-2-yl)-N-((1S,2R)-1-(5-chlorobenzofuran-2-yl)-1-hydroxy-3-(pyrrolidin-1-yl)propan-2-yl)-2,2-difluoroacetamide], the “% inhibition generated from Assay 1” value is “B* (the compound had a % inhibition of greater than or equal to about 3% but less than about 50%)”.

As for `O=C(N[C@H](CN1CCCC1)[C@@H](O)c1cc2cc(Cl)ccc2o1)C(F)(F)c1cc2cc(Cl)ccc2o1` [Compound 68G, 2-(5-chlorobenzofuran-2-yl)-N-((1R,2R)-1-(5-chlorobenzofuran-2-yl)-1-hydroxy-3-(pyrrolidin-1-yl)propan-2-yl)-2,2-difluoroacetamide], the “% inhibition generated from Assay 1” value is “B* (the compound had a % inhibition of greater than or equal to about 3% but less than about 50%)”.

Staying with this assay, now noted: Table 2; data marked by *.
On to `O=C(N[C@H](CN1CCCC1)[C@H](O)c1ccc2c(c1)OCCO2)C(=O)c1[nH]cc2c1CCCC2` [Compound 77, N-((1R,2R)-1-(2,3-dihydrobenzo[b][1,4]dioxin-6-yl)-1-hydroxy-3-(pyrrolidin-1-yl)propan-2-yl)-2-oxo-2-(4,5,6,7-tetrahydro-2H-isoindol-1-yl)acetamide], for which the “% inhibition generated from Assay 1” value is given as “B* (the compound had a % inhibition of greater than or equal to about 3% but less than about 50%)”.

As to `O=C(N[C@H](CN1CCCC1)[C@H](O)c1ccc(OCC(F)(F)F)nc1)C(F)(F)CCc1ccc2cc(F)ccc2c1` [Compound 88, 2,2-difluoro-4-(6-fluoronaphthalen-2-yl)-N-((1R,2R)-1-hydroxy-3-(pyrrolidin-1-yl)-1-(6-(2,2,2-trifluoroethoxy)pyridin-3-yl)propan-2-yl)butanamide], the “% inhibition generated from Assay 1” value was “A* (the compound had a % inhibition of a percent inhibition of greater than or equal to about 50%)”.

Staying with this assay, now noted: Table 2; data without asterisk; read-out: IC50 (nM) generated from Assay 1.
`O=C(N[C@H](CN1CCC1)[C@H](O)c1ccc2c(c1)OCCO2)C(=O)c1cc2cc(Cl)ccc2o1` [Compound 78, N-((1R,2R)-3-(azetidin-1-yl)-1-(2,3-dihydrobenzo[b][1,4]dioxin-6-yl)-1-hydroxypropan-2-yl)-2-(5-chlorobenzofuran-2-yl)-2-oxoacetamide]: the IC50 was under 50 nM.

Consider `O=C(N[C@H](CN1CCCC1)[C@H](O)c1ccc(OC2CC2)c(Cl)c1)C(=O)c1cc2cc(Cl)ccc2o1` [Compound 79, N-((1R,2R)-1-(3-chloro-4-cyclopropoxyphenyl)-1-hydroxy-3-(pyrrolidin-1-yl)propan-2-yl)-2-(5-chlorobenzofuran-2-yl)-2-oxoacetamide], for which the IC50 was under 50 nM.

Consider `O=C(N[C@H](CN1CCCC1)[C@H](O)c1ccc(OC2CC2)c(Cl)c1)C(F)(F)CCc1ccc2cc(F)ccc2c1` [Compound 82, N-((1R,2R)-1-(3-chloro-4-cyclopropoxyphenyl)-1-hydroxy-3-(pyrrolidin-1-yl)propan-2-yl)-2,2-difluoro-4-(6-fluoronaphthalen-2-yl)butanamide], for which the half-maximal inhibitory concentration (IC50) is under 50 nM.

As to `O=C(N[C@H](CN1CCC1)[C@H](O)c1cc(F)c2c(c1)OCCO2)C(F)(F)c1cc2cc(Cl)ccc2o1` [Compound 83, N-((1R,2R)-3-(azetidin-1-yl)-1-(8-fluoro-2,3-dihydrobenzo[b][1,4]dioxin-6-yl)-1-hydroxypropan-2-yl)-2-(5-chlorobenzofuran-2-yl)-2,2-difluoroacetamide], the 50% inhibitory concentration (IC50) is under 50 nM.

For `O=C(N[C@H](CN1CCCC1)[C@H](O)c1ccc2c(c1)OCCO2)C(F)(F)CCc1ccc2cc(F)ccc2c1` [Compound 84, N-((1R,2R)-1-(2,3-dihydrobenzo[b][1,4]dioxin-6-yl)-1-hydroxy-3-(pyrrolidin-1-yl)propan-2-yl)-2,2-difluoro-4-(6-fluoronaphthalen-2-yl)butanamide], the 50% inhibitory concentration (IC50) was under 50 nM.

With `O=C(N[C@H](CN1CCCC1)[C@H](O)c1ccc(OCC(F)(F)F)nc1)C(F)(F)c1cc2cc(Cl)ccc2o1` [Compound 85, 2-(5-chlorobenzofuran-2-yl)-2,2-difluoro-N-((1R,2R)-1-hydroxy-3-(pyrrolidin-1-yl)-1-(6-(2,2,2-trifluoroethoxy)pyridin-3-yl)propan-2-yl)acetamide], the half-inhibitory concentration (IC50) was under 50 nM.

On to `O=C(N[C@H](CN1CCC1)[C@H](O)c1cc(F)c2c(c1)OCCO2)C(F)(F)CCc1ccc2cc(F)ccc2c1` [Compound 86, N-((1R,2R)-3-(azetidin-1-yl)-1-(8-fluoro-2,3-dihydrobenzo[b][1,4]dioxin-6-yl)-1-hydroxypropan-2-yl)-2,2-difluoro-4-(6-fluoronaphthalen-2-yl)butanamide], for which the IC50 was under 50 nM.

On to `O=C(N[C@H](CN1CCCC1)[C@H](O)c1cc(F)c2c(c1)OCCO2)C(F)(F)CCc1ccc2cc(F)ccc2c1` [Compound 87, 2,2-difluoro-N-((1R,2R)-1-(8-fluoro-2,3-dihydrobenzo[b][1,4]dioxin-6-yl)-1-hydroxy-3-(pyrrolidin-1-yl)propan-2-yl)-4-(6-fluoronaphthalen-2-yl)butanamide], for which the IC50 was under 50 nM.

Turning to `O=C(N[C@H](CN1CCC1)[C@H](O)c1cc(F)c2c(c1)OCCO2)C(=O)c1cc2cc(Cl)ccc2o1` [Compound 89, N-((1R,2R)-3-(azetidin-1-yl)-1-(8-fluoro-2,3-dihydrobenzo[b][1,4]dioxin-6-yl)-1-hydroxypropan-2-yl)-2-(5-chlorobenzofuran-2-yl)-2-oxoacetamide], the half-maximal inhibitory concentration (IC50) was under 50 nM.

In the case of `O=C(CCc1ccc2cc(F)ccc2c1)C(=O)N[C@H](CN1CCCC1)[C@H](O)c1ccc2c(c1)OCCO2` [Compound 90, N-((1R,2R)-1-(2,3-dihydrobenzo[b][1,4]dioxin-6-yl)-1-hydroxy-3-(pyrrolidin-1-yl)propan-2-yl)-4-(6-fluoronaphthalen-2-yl)-2-oxobutanamide], the IC50 is under 50 nM.
